Data taken from patent US5760248A, “Tachykinin antagonists” (A.Menarini Industrie Farmaceutiche Riunite S.r.l., priority 1993, dated 1998).

Target: T1, NK1 receptor (Homo sapiens, UniProt P25103)
T1 construct: endogenous in cells; host or cells: IM9 cells (intact)
Test: [3H] SP binding assay in IM9 Cell Line (intact cells)
Method: Assessment of biological activity (antagonist activity on NK1 receptor) of compounds of this invention was performed by means of the following binding and functional assays:
[3H] SP binding assay in IM9 Cell Line
Binding assay was performed with intact cells as described by Goso et al (Eur.J.Pharmacol. 254,221,1994).

T1 sequence (P25103 whole entry): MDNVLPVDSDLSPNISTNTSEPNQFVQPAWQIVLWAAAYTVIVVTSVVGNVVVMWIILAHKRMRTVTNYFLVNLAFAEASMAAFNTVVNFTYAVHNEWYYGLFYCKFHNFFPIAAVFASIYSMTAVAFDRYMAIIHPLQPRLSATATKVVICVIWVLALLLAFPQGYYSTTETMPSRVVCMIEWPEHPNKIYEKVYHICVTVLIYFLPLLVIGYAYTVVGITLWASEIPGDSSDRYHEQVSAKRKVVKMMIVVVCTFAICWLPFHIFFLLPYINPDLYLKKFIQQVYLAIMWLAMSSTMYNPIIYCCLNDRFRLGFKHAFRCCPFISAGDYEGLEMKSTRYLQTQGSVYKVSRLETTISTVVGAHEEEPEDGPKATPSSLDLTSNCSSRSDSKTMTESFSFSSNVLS

Row | Compound | pKi (Substance P antagonism Results)
1 | O=C(NC1CCCCC1C(=O)N[C@H](COCc1cc(C(F)(F)F)cc(C(F)(F)F)c1)Cc1ccc2ccccc2c1)c1c[nH]c2ccccc12 (stereo partly drawn) [4 (fast)] | < 5
2 | C[C@H](C(=O)N(C)[C@H](Cc1ccc2ccccc2c1)NC(=O)C1CCCCC1NC(=O)c1c[nH]c2ccccc12)c1ccccc1 (stereo partly drawn) [9 (fast), 1-{N-(1(H)indol-3-yl-carbonyl)(1R,2S)-2-aminocyclohexanecarbonyl}-amino-1-(N-methyl-N-((S)2-phenylpropionyl))amino-2-(2-naphthyl)ethane] | < 5
3 | CN(C(=O)Cc1ccc(Cl)cc1)[C@H](Cc1ccc2ccccc2c1)NC(=O)C1CCCCC1NC(=O)c1c[nH]c2ccccc12 (stereo partly drawn) [11 (fast), 1-{N-(1(H)indol-3-yl-carbonyl)(1R,2S)-2-aminocyclohexanecarbonyl}-amino-1-(N-methyl-N-4-chlorophenylacetyl)amino-2(2-naphthyl)ethane] | 8.4
4 | Cc1ccc(CC(=O)N(C)[C@H](Cc2ccc3ccccc3c2)NC(=O)C2CCCCC2NC(=O)c2c[nH]c3ccccc23)cc1 (stereo partly drawn) [12 (fast), 1-{N-(1(H)indol-3-yl-carbonyl)(1R,2S)-2-aminocyclohexanecarbonyl}-amino-1-(N-methyl-N-4-methylphenylacetyl)amino-2(2-naphthyl)ethane] | 8.7

Continued, values first:

Row | pKi (Substance P antagonism Results) | Compound
5 | < 6 | O=C(NC1CCCCC1C(=O)N[C@@H](Cc1ccccc1)C(=O)OCc1ccccc1)c1c[nH]c2ccccc12 (stereo partly drawn) [1 (fast)]
6 | < 6 | O=C(Cc1ccccc1)N[C@H](Cc1ccccc1)NC(=O)C1CCCCC1NC(=O)c1c[nH]c2ccccc12 (stereo partly drawn) [2 (fast), 1-{N-(1(H)indol-3-yl-carbonyl) (1R,2S)-2-aminocyclohexanecarbonyl}-amino-1-(phenylacetyl)amino-2-phenyl-ethane]
7 | 8.4 | CN(C(=O)Cc1ccccc1)[C@H](Cc1ccc2ccccc2c1)NC(=O)C1CCCCC1NC(=O)c1c[nH]c2ccccc12 (stereo partly drawn) [3 (fast), 1-{N-(1(H)indol-3-yl-carbonyl) (1R,2S)-2-aminocyclohexanecarbonyl}-amino-1-(N-methyl-N-phenylacetyl)amino-2(2-naphthyl)ethane]
8 | < 5 | CN(C(=O)Cc1ccccc1)[C@H](Cc1ccc2ccccc2c1)NC(=O)C1CCCCC1NC(=O)c1c[nH]c2ccccc12 (stereo partly drawn) [3 (slow), 1-{N-(1(H)indol-3-yl-carbonyl)(1S,2R)-2-aminocyclohexanecarbonyl}-amino-1-(N-methyl-N-phenylacetyl) amino-2(2-naphthyl)ethane]
9 | 8.7 | C[C@@H](C(=O)N(C)[C@H](Cc1ccc2ccccc2c1)NC(=O)C1CCCCC1NC(=O)c1c[nH]c2ccccc12)c1ccccc1 (stereo partly drawn) [10 (fast), 1-{N-(1(H)indol-3-yl-carbonyl)(1R,2S)-2-aminocyclohexane-carbonyl}-amino-1-(N-methyl-N-((R)2-phenylpropionyl))Ammino-2-(2-naphthyl)ethane]
